# Patent publication US20080096894A1, “Anti-Bacterial Compounds” (ASTON UNIVERSITY, priority 2005, published 2008)
# Read-outs that look alike come from different tables or passages of the source.
# Key:
# [1] = test system: human mononuclear leucocytes (MNL, white blood cells); assay: direct leucocyte toxicity, tryptan blue exclusion, 18 hours; assay type: cell-based; details: for % Leucocyte Death: human, 18 h
# Procedure: The in vitro assay used human mononuclear leucocytes (MNL, white blood cells) which were incubated with the test compound for 18 hours and cell death determined by tryptan blue exclusion (tryptan blue is a dye, which stains dead cells, whilst living cells extrude it).
# The toxicity of 4PYcq and the aldehyde cq and pyridine-4-carboxamidrazone precursors were assessed using the same in vitro assay with human mononuclear leucocytes as that described above. The toxicity of related compounds, 2-hydroxybenzylidene-pyridine-2-carboxamidrazone 4PYbw and benzylidenepyridine-2-carboxamidrazone 4PYaa were also examined.
# [2] = test system: MRSA; assay: MIC, agar dilution, multipoint inoculator; assay type: cell-based, methicillin-resistant Staphylococcus aureus
# Procedure: (§1) This activity was measured using a multipoint inoculator method as follows. The MIC for each compound was measured using an agar dilution method (Onda, H., et al., Int. J. Antimicrob. Agents. 18, 263 (2001)) (Mueller Hinton agar) by means of a multipoint inoculator delivering 10^4 colony forming units per spot.
# ‘Staph’ refers to the reference strain of S. aureus (NCTC 6571). A tick in the MRSA column refers to a positive zone against MRSA strain 96-7474, and the MIC range (in μg/ml) which follows is that found against a panel of ten MRSA strains. Where MIC values are given for MRSA, these are stated as a range of values, as testing was carried out on a panel of clinical isolates.
# [3] = test system: S. aureus; assay: MIC, agar dilution, multipoint inoculator; assay type: cell-based, Staphylococcus aureus; details: upper value of MIC reading
# Procedure: as §1
# [4] = test system: S. epidemisis; assay: MIC, agar dilution, multipoint inoculator; assay type: cell-based, Staphylococcus epidermidis; details: upper value of MIC reading
# Procedure: as §1
# [5] = test system: E. faecalis; assay: MIC, agar dilution, multipoint inoculator; assay type: cell-based; details: upper value of MIC reading
# Procedure: as §1
# [6] = test system: S. haemolyticus; assay: MIC, agar dilution, multipoint inoculator; assay type: cell-based; details: S. haemolyticus Isolate 1; upper value of MIC reading
# Procedure: as §1
# [7] = test system: E. faecium; assay: MIC, agar dilution, multipoint inoculator; assay type: cell-based, Enterococcus faecium; details: E. faecium NCTC 7171; upper value of MIC reading
# Procedure: as §1
# [8] = test system: S. aboni; assay: MIC, agar dilution, multipoint inoculator; assay type: cell-based; details: S. aboni NCTC 6017; upper value of MIC reading
# Procedure: as §1
# [9] = MRSA Isolate 1, upper value of MIC reading, in µg/mL
# [10] = MRSA Isolate 2, upper value of MIC reading, in µg/mL
# [11] = MRSA Isolate 3, upper value of MIC reading, in µg/mL
# [12] = MRSA Isolate 4, upper value of MIC reading, in µg/mL
# [13] = MRSA Isolate 5, upper value of MIC reading, in µg/mL
# [14] = MRSA Isolate 6, upper value of MIC reading, in µg/mL
# [15] = MRSA Isolate 7, upper value of MIC reading, in µg/mL
# [16] = MRSA Isolate 8, upper value of MIC reading, in µg/mL
# [17] = MRSA Isolate 9, upper value of MIC reading, in µg/mL
# [18] = MRSA Isolate 10, upper value of MIC reading, in µg/mL
# [19] = panel of ten MRSA strains (clinical isolates)
Structure (SMILES),direct MNL toxicity (in words) [1],% Leucocyte Death ([1]; 0.1 mM),MIC ([3]; S. aureus Cowan 1),MIC ([3]; S. aureus NCTC 6571),MIC ([3]; S. aureus NCTC 10788),"MIC [2, 9]","MIC [2, 10]","MIC [2, 11]","MIC [2, 12]","MIC [2, 13]","MIC [2, 14]","MIC [2, 15]","MIC [2, 16]","MIC [2, 17]","MIC [2, 18]","MRSA MIC range [2, 19]",MIC ([4]; S. epidemisis NCTC 11047),also measured
"N/N=C(\N)c1ccccn1 [Compound 2PY, Pyridine-2-carboxamidrazone]",most toxic,–,–,–,–,–,–,–,–,–,–,–,–,–,–,–,–,% Leucocyte Death ([1]; 1 mM): 12.1 ± 2.2%
CC(C)(C)c1ccc(/C=N/N=C(\N)c2ccccn2)cc1 [Compound 2PYae],indistinguishable from the background levels,1.1 ± 1.0%,–,–,–,–,–,–,–,–,–,–,–,–,–,–,–,–
CCC(C)(C)c1ccc(/C=N/N=C(\N)c2ccccn2)cc1 [Compound 2PYaf],indistinguishable from the background levels,–,–,–,–,–,–,–,–,–,–,–,–,–,–,–,–,"MIC ([2]; Staphylococcus aureus, MRSA, 18 h, panel of ten MRSA strains (clinical isolates), read-out: MRSA MIC range): > 256 µg/mL; % Leucocyte Death ([1]; 1 mM): 3.1 ± 1.0%"
N/C(=N\N=C\c1ccccc1OCc1ccccc1)c1ccccn1 [Compound 2PYbe],indistinguishable from the background levels,5.1 ± 4.1%,–,–,–,–,–,–,–,–,–,–,–,–,–,–,–,–
NC(=NN=Cc1cc([N+](=O)[O-])ccc1O)c1ccccn1 [Compound 2PYcj],–,–,32 µg/mL,16 µg/mL,16 µg/mL,16,16,4,8,16,16,8,4-8,8,8,4 to 32 µg/mL,256 µg/mL,MIC ([4]; S. epidemisis Isolate 1): 256 µg/mL; MIC ([5]; E. faecalis Isolate 3): 256 µg/mL; MIC ([5]; E. faecalis Isolate 5): 256 µg/mL; MIC [6]: 256 µg/mL
N/C(=N\N=C\c1ccccc1Sc1ccc(Cl)cc1)c1ccccn1 [Compound 2PYeh],indistinguishable from the background levels,3.7 ± 2.6%,–,–,–,–,–,–,–,–,–,–,–,–,–,–,–,–
NC(=NN=Cc1cc(O)c(O)cc1O)c1cccnc1 [Compound 3PYcc],–,–,256 µg/mL,256 µg/mL,256 µg/mL,256,256,256,256,256,256,256,256,256,256,128 to 256 µg/mL,32 µg/mL,MIC [7]: 256 µg/mL; MIC ([5]; E. faecalis Isolate 1): 256 µg/mL; MIC ([5]; E. faecalis Isolate 2): 256 µg/mL; MIC ([5]; E. faecalis Isolate 4): 256 µg/mL; MIC ([5]; E. faecalis Isolate 5): 128 µg/mL; MIC ([5]; E. faecalis NCTC 5957): 256 µg/mL; MIC [8]: 256 µg/mL
NC(=NN=Cc1cc([N+](=O)[O-])ccc1O)c1cccnc1 [Compound 3PYcj],–,–,16 µg/mL,8 µg/mL,8 µg/mL,4,4,4,4,4,8,8,8,8,8,2 to 8 µg/mL,64 µg/mL,MIC ([4]; S. epidemisis Isolate 1): 128 µg/mL; MIC ([5]; E. faecalis Isolate 1): 128 µg/mL; MIC ([5]; E. faecalis Isolate 2): 128 µg/mL; MIC ([5]; E. faecalis NCTC 5957): 256 µg/mL; MIC [8]: 256 µg/mL
